# Measured values: BindingDB's records for doi:10.1016/j.bmcl.2006.04.076 (Merck Research Laboratories, 2006)
# Biological target: Beta-secretase 1 (Homo sapiens, UniProt P56817)
# Assay: In Vitro BACE1 Activity Assay
# Settings: pH 4.5; 22 °C
# Procedure: The assay was performed using a 96-well format on a HPLC equipped with four 96-well plate holders. Test compounds were preincubated with enzymes for 30 min, followed by the addition of substrate. The solution was then incubated for an additional 30 min at room temperature. After the reaction was terminated, the solution was filtered, and the filtrate was subjected to HPLC analysis. The substrate and product were monitored by fluorescence detection (340nm excitation, 440 nm emission).
# Beta-secretase 1, sequence (P56817 whole entry): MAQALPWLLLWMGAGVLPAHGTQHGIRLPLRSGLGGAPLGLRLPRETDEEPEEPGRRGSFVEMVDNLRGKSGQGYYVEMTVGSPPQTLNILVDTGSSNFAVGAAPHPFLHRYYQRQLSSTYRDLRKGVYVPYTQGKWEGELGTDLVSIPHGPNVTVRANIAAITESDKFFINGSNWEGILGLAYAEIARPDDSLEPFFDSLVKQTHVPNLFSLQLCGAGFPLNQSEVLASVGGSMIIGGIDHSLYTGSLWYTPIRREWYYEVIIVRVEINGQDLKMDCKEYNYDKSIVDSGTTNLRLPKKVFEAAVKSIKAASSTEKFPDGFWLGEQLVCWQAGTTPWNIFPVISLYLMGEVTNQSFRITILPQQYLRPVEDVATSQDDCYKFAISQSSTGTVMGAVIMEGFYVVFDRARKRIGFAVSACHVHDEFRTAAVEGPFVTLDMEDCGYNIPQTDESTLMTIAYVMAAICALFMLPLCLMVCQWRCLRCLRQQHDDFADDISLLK
row,SMILES,IC50 [µM]
1,"CC(C)CNC(=O)[C@H](C)NC[C@H](Cc1ccccc1)NC(=O)c1cc(/C=C\[C@H]2C[C@@H]2C)cc(N(C)S(C)(=O)=O)c1 [N-[(1S)-1-benzyl-2-({(1S)-1-methyl-2-[(2-methylpropyl)amino]-2-oxoethyl}amino)ethyl]-3-{(Z)-2-[(1S,2S)-2-methylcyclopropyl]ethenyl}-5-[methyl(methylsulfonyl)amino]benzamide]",0.02
2,C[C@H](NC[C@H](Cc1ccccc1)NC(=O)c1cc(C(=O)N[C@H](C)c2ccc(F)cc2)cc(N(C)S(C)(=O)=O)c1)C(=O)N1CCCC1C(=O)O (stereo partly drawn) [1-[(2S)-2-{[(2S)-2-[(3-{[(1R)-1-(4-fluorophenyl)ethyl]carbamoyl}-5-(N-methylmethanesulfonamido)phenyl)formamido]-3-phenylpropyl]amino}propanoyl]pyrrolidine-2-carboxylic acid],17.2
